We go through four substances from PMC10514136, “Peptide-conjugated antimiRs improve myotonic dystrophy type 1 phenotypes by promoting endogenous MBNL1 expression” (Molecular Therapy. Nucleic Acids, 2023).

For data set [1], the system named is MBNL1 protein levels in DM1 cells. Kind of data set: MBNL1 protein levels by QDB in DM1 cells after gymnotic delivery. In kind it is cell-based, human. The note with it: for MBNL1 protein levels vs untreated DM1 cells: gymnosis at the EC50 concentration of each compound; for MBNL1 fold change: gymnotic delivery. The method, then:
Immortalized MyoD-inducible (doxycycline) DM1 and control fibroblasts were kindly provided by Dr Furling (Institute of Myology, Paris, France).[38] For the activity assay, cells were seeded in 6-well plates at a density of 8 × 10^4 cells/well and grown in DMEM with 4.5 g/L glucose, 1% P/S, and 10% FBS (Sigma, St. Louis, MO). To transdifferentiate fibroblasts into myoblasts by inducing MyoD expression, the cells were plated in muscle differentiation medium containing DMEM with 4.5 g L^−1 glucose, 1% P/S, 2% horse serum, 1% apo-transferrin (10 mg mL^−1), 0.1% insulin (10 mg mL^−1), and 0.02% doxycycline (10 mg mL^−1). In all cases, the cells were grown at 37°C in a humidified atmosphere containing 5% CO2. Transdifferentiation was induced at day 0, and transfection was performed by lipofection with X-tremeGENE HP (Roche, Basel, Switzerland) 24 h later, with antimiRs and test compounds in the cell medium at different concentrations (from 0.4 nM to 5 μM). The medium was replaced with fresh differentiation medium 4 h afterward. In the gymnosis assay, test compounds were added to the culture medium only at the corresponding EC50 concentration. Cells were collected on day 4 of differentiation and were processed for protein extraction.
A 96-well plate QDB assay was used[87] to determine MBNL1 protein levels in all replicates and concentrations of each ON tested. This technique allows for high-throughput screening of low protein concentration samples over conventional western blot (WB) (Figure S9).[88] Cell samples (1 μg/well) and mice samples (2 μg/well) were prepared with 4× loading buffer, denatured (100°C for 5 min) and loaded in QDB plates (Quanticision Diagnostics, Research Triangle Park, NC). For the quantification of in vitro samples, the QDB was performed exactly as described in Moreno et al.[87] Each cell sample was loaded in quadruplicate in two different plates; one was used to detect MBNL1 (it was incubated overnight with primary mouse anti-MBNL1 [1:1,000, Abcam, ab77017]) and the other for GAPDH (it was incubated overnight with primary mouse anti-GAPDH [1:500, Santa Cruz, clone G-9]), which was used here as an endogenous control. For Mbnl1 quantification in mouse muscle tissues, we implemented the following modifications: each sample was loaded in quadruplicate on three different plates. One was used to detect Mbnl1 with a mouse MB1a(4A8) antibody (DSHB, Iowa City, IA) using a 1:200 dilution. A second plate was used to quantify tubulin (endogenous normalization control) with a mouse 12G10 antibody (DSHB) using a 1:1,000 dilution. A third plate was used to quantify IgG signal (negative control to subtract background) using an anti-mouse-IgG secondary antibody (Sigma-Aldrich) at 1:3,500 dilution. This subtraction was necessary due to an unspecific IgG signal could be observed in mouse samples (Figures S10A–S10D). All primary antibodies were detected using horseradish peroxidase-conjugated anti-mouse-IgG secondary antibody (1:5,000 for the anti-mouse plate, 1:2,000 for cell plates, and 1:3,500 for mouse plates [Sigma-Aldrich, MO]). Immunoreactive bands were detected using Pierce ECL Western reagent (Thermo Scientific), and luminescence levels were determined using an Infinite M200 PRO plate reader (Tecan). The validity of this correction for QDB quantification of mouse samples was confirmed by performing a series of experiments determining both the window of linearity of the assay (2–5 μg protein, Figures S10A–S10B) and the comparison with data obtained by WB in a subset of samples (Figures S10E–S10H), obtaining a correlation of 0.9927 for MBNL1 and 0.8678 for tubulin (in the case of quadriceps), and 0.9821 for MBNL1 and 0.9699 for tubulin (in gastrocnemius). For WB assay in quadriceps (Figure S10I), samples were loaded in pools of each treatment to have a representative WB of all the treatments tested. WB assay was performed as described previously.[20]

The subject of a further data set is Mbnl1 mRNA. In words: Mbnl1 transcript levels in muscle by qRT-PCR. The note with it: HSALR mice, 9.2 mg/kg (mean) i.v. every 2 weeks x3, day 45; quadriceps, vs PBS-treated HSALR. It is filed as in vivo, mouse. How it is done: Total RNA from murine gastrocnemius and quadriceps muscle was isolated using the miRNeasy Mini Kit (QIAGEN, Hilden, Germany) according to the manufacturer's instructions. One microgram of RNA was digested with DNase I (Invitrogen, Carlsbad, CA) and reverse transcribed with SuperScript II (Invitrogen) using random hexanucleotides. For subsequent PCR reactions, 20 ng of cDNA was used with GoTaq polymerase (Promega). Specific primers were used to analyze the alternative splicing of Nfix, Atp2a1, and Clcn1 in mouse samples (both muscles). Gapdh levels established the endogenous reference levels using 0.2 ng of cDNA. […] PSR index was defined as value%SI minus X %DSI , divided by […] (SI, splicing inclusion of each sample; DSI, disease splicing inclusion; HSI, healthy splicing inclusion). Overall, PSR indicates the amount in both muscles analyzed. […] Commercial TaqMan probes (QIAGEN) were used for mouse (Mbnl1 and Mbnl2; FAM-labeled probes) and reference (GAPDH; MAX-labeled probe) genes. Results were normalized to Gapdh endogenous gene expression. Expression levels were measured using a QuantStudio 5 Real-Time PCR System (Applied Biosystems, Foster City, CA). […] Mouse handling and experimental procedures followed the European law regarding laboratory animal care and experimentation (2003/65/C.E.) and were approved by Conselleria de Agricultura, […] […]

As to “6aKC-23b (antisense GGUAAUCCCUGGCAAUGUGAU; all phosphorodiamidate morpholino (PMO), T or U not given here; Pip6aKC peptide conjugated)”, the “MBNL1 protein levels vs untreated DM1 cells” value in data set [1] was “significant increases observed in MBNL1 protein levels”. For the same substance, the MBNL1 fold change in data set [1] (200 nM) is reported as around 2.5 fold. Besides, the “Mbnl1 mRNA levels” value in the data set on Mbnl1 mRNA is “significant increases in quadriceps”. For the substance “6aKC-218 (antisense ACAUGGUUAGAUCAAGCACAA; all phosphorodiamidate morpholino (PMO), T or U not given here; Pip6aKC peptide conjugated)”, in data set [1], the “MBNL1 protein levels vs untreated DM1 cells” value is on record as “significant increases observed in MBNL1 protein levels”. In data set [1] (1 μM), this substance displayed an MBNL1 fold change of around 2 fold. With “9b2-218 (antisense ACAUGGUUAGAUCAAGCACAA; all phosphorodiamidate morpholino (PMO), T or U not given here; Pip9b2 peptide conjugated)”, the “MBNL1 protein levels vs untreated DM1 cells” value in data set [1] is reported as “significant increases observed in MBNL1 protein levels”. As for “9b2KC-23b (antisense GGUAAUCCCUGGCAAUGUGAU; all phosphorodiamidate morpholino (PMO), T or U not given here; Pip9b2KC peptide conjugated)”, the “MBNL1 levels, gymnosis compared with transfection” value in data set [1] (each compound at its EC50 concentration) is “identical MBNL1 modulation results by transfection and gymnosis”.
